Entries after “also recorded” stand apart in the source; their conditions may differ.
Experiments:
[1] = system: sham-transfected COS-7 cells; assay: [3H]LTB4 binding to membranes from sham-transfected COS-7 cells; design: species or system African green monkey
Description: (§1) Intact plasmid DNA (10-25 μg) of the cDNA clone, Lyme21-9 (1), was transfected using the calcium phosphate precipitation method. Chinese hamster ovary cells (CHO-K1) were used to establish stable expression of the corresponding receptor, CMKRL1. The pCDneo vector was co-transfected to allow for selection with G-418)Geneticin, 500 μg/ml). Single resistant colonies were isolated to obtain homogenous cell lines, and appropriate expression of the corresponding mRNA were verified by Northern blot hybridization with cDNA probes. SV40 transformed African green monkey kidney cells (COS-7) were used for transient expression. These cells were harvested after 48 hrs for preparation and isolation of membranes. Sham-transfected cells were used as controls throughout.
The transiently transfected COS-7 cells were washed with PBS, which was replaced with 50 mM TRIS/HCl buffer (pH 7.4) containing 1 mM EGTA and 5 mM MgCl2, and scraped off. After homogenization for 20 sec in a Polytron homogenizer (Brinkmann, setting 5.5) the material was centrifuged at 20,000 rpm for 30 min at 4° C., followed by washing through homogenization in the TRIS binding buffer and subsequent recentrifugation, which was repeated twice. The pellet was finally resuspended by homogenization and stored in liquid nitrogen until used. […]

CMKRL1 [2] = molecular target: T1, CMKRL1 (Homo sapiens, UniProt Q15722); assay: Intracellular calcium (Fura-2) in CHO cells stably expressing CMKRL1; assay type: cell-based; settings: 1000 nM LTB4
T1 construct: A full-length cDNA (Lyme21-9) encoding a novel putative seven-transmembrane (7TM) domain receptor, named CMKRL1; expressed in transfected cells
Description: as §1, with “throughout. […]” for “throughout.”
Agonists were added in 50 μl of extracellular medium buffer and mixed thoroughly with the original contents of the well. Fluorescence images were obtained by alternate excitation at 340 and 380 nm, and the emitted light was measured at 510 nm. The software configuration allowed for storage of fluorescence information from groups of cells, which could then be analyzed separately. Intracellular calcium concentrations were calibrated using the method described by William and Fay (5) and calculated from the aforementioned radiometric images using the mathematical relationship described by Grynkiewicz et al. (6). […]

[3] = system: sham-transfected control cells; assay: Intracellular calcium (Fura-2) in sham-transfected CHO control cells; assay type: cell-based, Chinese hamster; settings: any dose level, shown for 1000 nM
Description: as §1, with “These cells were harvested after 48 hrs for preparation and isolation of membranes. Sham-transfected cells were used as controls throughout.” left out
Transfected cells were seeded into 96-well plates (Corning-Costar) by dissociating confluent cultures using PBS containing 2 mM EDTA, diluting the resulting suspension 20×, and adding 50 μl per well. […] After 3 washes in extracellular medium buffer (135 mM NaCl, 4.6 mM KCl, 1.2 MM MgCl2, 1.5 mM CaCl2, 11 mM glucose, 11 mM Hepes, pH 7.4), the plates were mounted on the stage of a Nikon inverted fluorescence microscope attached to an SIT-camera and an image analysis system (Photon Technology International). […]
Agonists were added in 50 μl of extracellular medium buffer and mixed thoroughly with the original contents of the well. Fluorescence images were obtained by alternate excitation at 340 and 380 nm, and the emitted light was measured at 510 nm. […]

CMKRL1 [4] = molecular target: T1, CMKRL1; assay: [3H]LTB4 saturation binding to membranes from COS-7 cells transiently transfected with Lyme21-9 cDNA; settings: for Bmax: Scatchard analysis, COS-7 membranes, 4° C.; for binding sites identified: saturation binding, linear Scatchard plot
Description: as §1
The transiently transfected COS-7 cells were washed with PBS, which was replaced with 50 mM TRIS/HCl buffer (pH 7.4) containing 1 mM EGTA and 5 mM MgCl2, and scraped off. After homogenization for 20 sec in a Polytron homogenizer (Brinkmann, setting 5.5) the material was centrifuged at 20,000 rpm for 30 min at 4° C., followed by washing through homogenization in the TRIS binding buffer and subsequent recentrifugation, which was repeated twice. The pellet was finally resuspended by homogenization and stored in liquid nitrogen until used. For the binding studies, membrane material corresponding to 30 μg protein ([…]) was blended with ice-cold binding buffer (0.02 M Hepes buffer containing 10 mM CaCl2 and MgCl2) to a final volume of 70 μl and added to wells in a 96-well polypropylene plate. […] Each data point is the result of the mean of triplicate wells from three separate experiments, which have in turn been averaged.

T1 sequence (Q15722 whole entry): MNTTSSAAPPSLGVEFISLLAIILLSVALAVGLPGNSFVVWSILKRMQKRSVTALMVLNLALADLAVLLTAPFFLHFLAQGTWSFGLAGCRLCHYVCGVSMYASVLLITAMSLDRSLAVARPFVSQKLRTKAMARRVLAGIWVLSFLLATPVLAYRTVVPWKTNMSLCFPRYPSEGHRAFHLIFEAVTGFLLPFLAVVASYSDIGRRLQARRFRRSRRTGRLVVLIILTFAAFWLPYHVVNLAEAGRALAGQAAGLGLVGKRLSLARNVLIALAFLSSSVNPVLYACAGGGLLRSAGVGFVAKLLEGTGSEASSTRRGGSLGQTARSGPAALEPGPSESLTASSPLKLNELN

SMILES	specific binding [1]	increase in intracellular calcium in calcium-free medium (CMKRL1 [2])	effect on intracellular calcium in sham-transfected control cells [3]	Bmax (CMKRL1 [4]) [pmoles/mg protein]	Bmax (CMKRL1 [4]; listed as tritiated LTB4) [pmoles/mg protein]	Non-specific binding as share of the total binding (CMKRL1 [4]; binding of tritiated ligand in the presence of 1 μM non-labelled ligand)	binding sites identified (CMKRL1 [4])	binding sites identified (CMKRL1 [4]; listed as tritiated LTB4)
CCCCC/C=C\C[C@@H](O)/C=C/C=C/C=C\[C@@H](O)CCCC(=O)O [LTB4, leukotriene B4]	No binding	no longer included any significant increase; also recorded: No response	completely without effect; also recorded: No response; also recorded: No binding or activation					
CCCCC/C=C\C[C@@H](O)/C=C/C=C\C=C\[C@@H](O)CCCC(=O)O [[^3H]LTB4]	no specific binding			17.0 ± 2.0	17.0	less than 15%	single class of high-affinity binding sites	binds with high affinity to a single receptor population

— US20050118675A1, “Heptahelix receptor and its use as leukotriene B4 receptor” (Owman Investment Ltd., priority 1997, published 2005)
